Test results from patent US5114937A, “Renin inhibiting nonpeptides” (Warner-Lambert Company, priority 1989, dated 1992).

What follows are molecules tested against T1, renin (Homo sapiens, UniProt P00797) (assay: in vitro renin inhibitory activity, radioimmunoassay for angiotensin I). Conditions: @ 1 × 10^-8 (molar); 2 hours at 37°.
T1 sequence (P00797 67-406): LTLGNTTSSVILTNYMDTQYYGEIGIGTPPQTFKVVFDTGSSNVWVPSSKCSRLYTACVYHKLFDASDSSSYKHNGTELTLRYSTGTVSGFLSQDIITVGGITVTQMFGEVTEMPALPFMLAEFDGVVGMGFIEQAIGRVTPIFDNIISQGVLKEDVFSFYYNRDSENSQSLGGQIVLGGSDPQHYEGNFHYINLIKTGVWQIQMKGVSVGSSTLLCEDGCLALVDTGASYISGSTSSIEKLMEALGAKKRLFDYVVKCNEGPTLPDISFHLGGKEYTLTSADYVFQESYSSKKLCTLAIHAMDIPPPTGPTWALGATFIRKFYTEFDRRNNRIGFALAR
Format: biochemical
Method: The effectiveness of the aforementioned compounds is determined by a test for in vitro renin inhibitory activity. This activity is determined by a standard radioimmunoassay for angiotensin I. ln this assay the enzyme, renin, incubated for 2 hours at 37° in the presence of a substrate, angiotensinogen, generates the product, angiotensin I. Test compounds are added to the incubation mixture. Relative activity is reported as the percent inhibition at the specified molar concentration or as the IC50, which is the molar concentration of test compound causing a 50% inhibition of the renin activity.
For `CC(C)C[C@H](O)[C@H](O)[C@H](CC1CCCCC1)NC(=O)CC1OC1[C@H](Cc1ccccc1)NC(=O)OC(C)(C)C` (stereo partly drawn), the “In Vitro Activity, percent inhibition” value was 21%. In the case of `CC(C)C[C@H](O)[C@H](O)[C@H](CC1CCCCC1)NC(=O)CCC(=O)[C@H](Cc1ccccc1)NC(=O)OCc1ccccc1` [ZPHE.psi.[COCH2 ]GLYCAD, Z-PHE.PSI.[COCH2]GLY-CAD], the “In Vitro Activity, percent inhibition” value is reported as 1%.

Same assay, conditions: @ 3 × 10^-8 (molar); 2 hours at 37°
With `CC(C)C[C@H](O)[C@H](O)[C@H](CC1CCCCC1)NC(=O)C/C=C/[C@H](Cc1ccccc1)NC(=O)OC(C)(C)C` [BOCPHE.psi.[CHCH]GLYCAD, BOC-PHE.PSI.[E-CH=CH]GLY-CAD] the “In Vitro Activity, percent inhibition” value was 1%.

Same assay, conditions: @ 10^-6 (molar; also 1 × 10^-6); 2 hours at 37°
In the case of `CC(C)C[C@H](O)[C@H](O)[C@H](CC1CCCCC1)NC(=O)C(N)CC(O)[C@H](Cc1ccccc1)NC(=O)OC(C)(C)C` (single isomer, unassigned) [drawing 42, BOC-PHE.PSI.[CHOHCH2 ]CH(NH2)CO-CAD], the “In Vitro Activity, percent inhibition” value is reported as 45%. In the case of `CC(C)C[C@H](O)[C@H](O)[C@H](CC1CCCCC1)NC(=O)CCC(O)[C@@H](N)Cc1ccccc1` (stereo partly drawn) [PHE.psi.[CHOHCH2 ]GLYCAD], the “In Vitro Activity, percent inhibition” value is reported as 28%. `CC(C)C[C@H](O)[C@H](O)[C@H](CC1CCCCC1)NC(=O)C(N)CC(O)[C@H](Cc1ccccc1)NC(=O)OC(C)(C)C` (single isomer, unassigned) [drawing 43, BOC-PHE.PSI.[CHOHCH2 ]CH(NH2)CO-CAD] was tested, and the “In Vitro Activity, percent inhibition” value was 26%.

Same assay, conditions: renin incubated 2 hours at 37° with angiotensinogen; values marked * = IC50; read-out: In Vitro Activity, IC50 (molar concentration causing a 50% inhibition of the renin activity)
`CC(C)C[C@H](O)[C@H](O)[C@H](CC1CCCCC1)NC(=O)CCC(=O)[C@H](Cc1ccccc1)NS(=O)(=O)N1CCOCC1` [SMOPHE.psi.[COCH2 ]GLYCAD, SMO-PHE.PSI.[COCH2]GLY-CAD] showed an IC50 of 87 nM. `CC(C)C[C@H](O)[C@H](O)[C@H](CC1CCCCC1)NC(=O)C=CC(O)[C@H](Cc1ccccc1)NS(=O)(=O)N1CCOCC1` (stereo partly drawn) [SMOPHE.psi.[CHOHCHCHCO]CAD, SMO-PHE.PSI.[CHOHCH=CHCO]CAD] was tested, and the IC50 was 25 nM. With `CC(C)C[C@H](O)[C@H](O)[C@H](CC1CCCCC1)NC(=O)CCC(O)[C@H](Cc1ccccc1)NC(=O)OCc1ccccc1` (single isomer, unassigned) [ZPHE.psi.[CHOHCH2 ]GLYCAD (Slow Eluting Diastereomer), Z-PHE.PSI.[CHOHCH2 ]GLY-CAD (Slow Isomer)] the IC50 was 200 nM. `CC(C)C[C@H](O)[C@H](O)[C@H](CC1CCCCC1)NC(=O)CCC(O)[C@H](Cc1ccccc1)NS(=O)(=O)N1CCOCC1` (single isomer, unassigned) [SMOPHE.psi.[CHOHCH2 ]GLYCAD (Isomer B), SMO-PHE.PSI.[CHOHCH2 ]GLY-CAD (Isomer B)] was tested, and the IC50 was 17 nM. For `CC(C)C[C@H](O)[C@H](O)[C@H](CC1CCCCC1)NC(=O)CCC(O)[C@H](Cc1ccccc1)NC(=O)OC(C)(C)C` (mixture of isomers) [BOCPHE.psi.[CHOHCH2 ]GLYCAD (Mixture of Diastereomers), BOC-PHE.PSI.[CHOHCH2 ]GLY-CAD (Mixture of Diastereomers)], the IC50 was 30 nM. For `CC(C)C[C@H](O)[C@H](O)[C@H](CC1CCCCC1)NC(=O)CCC(O)[C@H](Cc1ccccc1)NC(=O)OCc1ccccc1` (mixture of isomers) [ZPHE.psi.[CHOHCH2 ]GLYCAD (Mixture of Diastereomers), Z-PHE.PSI.[CHOHCH2 ]GLY-CAD (Mixture of Diastereomers)], the IC50 was 240 nM. With `CC(C)C[C@H](O)[C@H](O)[C@H](CC1CCCCC1)NC(=O)CCC(O)[C@H](Cc1ccccc1)NS(=O)(=O)N1CCOCC1` (single isomer, unassigned) [SMOPHE.psi.[CHOHCH2 ]GLYCAD (Isomer A), SMO-PHE.PSI.[CHOHCH2 ]GLY-CAD (Isomer A)] the IC50 was 2.3 nM. Molecule `CC(C)C[C@H](O)[C@H](O)[C@H](CC1CCCCC1)NC(=O)CNC[C@H](Cc1ccccc1)NS(=O)(=O)N1CCOCC1` [SMOPHE.psi.[CH2 NH]GLYCAD, SMO-PHE.PSI.[CH2 NH]GLY-CAD] has an IC50 of 2600 nM. For `CC(C)C[C@H](O)[C@H](O)[C@H](CC1CCCCC1)NC(=O)CCC(O)[C@H](Cc1ccccc1)NC(=O)OC(C)(C)C` (single isomer, unassigned) [BOCPHE.psi.[CHOHCH2 ]GLYCAD (Slow Eluting Diastereomer), BOC-PHE.PSI.[CHOHCH2 ]GLY-CAD (Slow Isomer)], the IC50 was 15 nM.
